Source: patent US6525001B1, “Substituted pyrimidine and pyridine herbicides” (Mid-American Commercialization Corporation, priority 1997, dated 2003)

Tests used:
Assay type in all cases: in vivo
Parameters in all cases: key: 0 is no effect; 10 is complete control
[1] = test system: bedstraw (Galium aparine); test: Test B pre-/postemergence
In short: (§1)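 Seeds were planted and sprayed preemergence, while plants at 2 to 18 cm (1- to 4-leaf stage) were sprayed postemergence at the same time, with test chemical in a non-phytotoxic solvent mixture containing surfactant. After twelve to sixteen days in a greenhouse, injury was rated visually against untreated controls on a 0–10 scale.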

[2] = test system: rape (Brassica napus); test: Test B pre-/postemergence
In short: as §1

[3] = test system: bamyardgrass (Echinochloa crus-galli); test: Test B flood test
In short: (§2)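 Plants were grown to the 2-leaf stage before treatment with test chemical, then held in a greenhouse for twelve to sixteen days. Injury was visually rated against untreated controls on a 0–10 scale, where 0 is no effect and 10 is complete control.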

[4] = test system: duck salad (Heteranthera limosa); test: Test B flood test
In short: as §2

[5] = test system: rice (Oryza sativa); test: Test B flood test
In short: as §2

[6] = test system: smallflower flatsedge (Cyperus difformis); test: Test B flood test
In short: as §2

[7] = Preemergence, Rate 62 g/ha, scale of 0 to 10
[8] = Rate 62 g/ha, Postemergence (flood test)
[9] = Rate 125 g/ha, Postemergence section (flood test species)
[10] = Rate 250 g/ha, Postemergence (flood test species)
[11] = Rate 500 g/ha, Postemergence (flood test species)
[12] = Rate 125 g/ha, Postemergence, flood test

Structure (SMILES)	Plant response rating, Bedstraw [1, 7]	Bedstraw plant response rating ([1]; Rate 62 g/ha, Postemergence)	Bedstraw plant response rating ([1]; Rate 125 g/ha, Postemergence)	Plant response rating, Bedstraw ([1]; Rate 125 g/ha, Preemergence)	Plant response rating, Bedstraw ([1]; Rate 250 g/ha, Postemergence)	Plant response rating, Bedstraw ([1]; Rate 250 g/ha, Preemergence)	Plant response rating, Bedstraw ([1]; Rate 500 g/ha, Postemergence)	Plant response rating, Bedstraw ([1]; Rate 500 g/ha, Preemergence)	Plant response rating, Rape ([2]; Rate 250 g/ha, Postemergence)	Plant response rating, Rape ([2]; Rate 250 g/ha, Preemergence)	Plant response rating, Rape ([2]; Rate 500 g/ha, Postemergence)	Plant response rating, Rape ([2]; Rate 500 g/ha, Preemergence)	Plant response rating, Barnyardgrass [3, 10]	Plant response rating, Barnyardgrass [3, 11]	Plant response rating, Ducksalad [4, 10]	Plant response rating, Ducksalad [4, 11]	Plant response rating, Rice [5, 10]	Plant response rating, Rice [5, 11]	Plant response rating, S. Flatsedge [6, 10]	Plant response rating, S. Flatsedge [6, 11]	other results
Cc1cnc(-n2cnc(C(F)(F)F)c2)nc1C(=O)c1cccc(OC(F)(F)F)c1 [Compound 63]	2	2	2	4	5	4	8	8	8	4	8	8	3	3	2	6	1	1	8	9	Plant response rating, Rape [2, 7]: 3; Rape plant response rating ([2]; Rate 62 g/ha, Postemergence): 3; Rape plant response rating ([2]; Rate 125 g/ha, Postemergence): 4; Plant response rating, Rape ([2]; Rate 125 g/ha, Preemergence): 3; Barnyardgrass plant response rating [3, 8]: 1; Barnyardgrass plant response rating [3, 9]: 3; Ducksalad plant response rating [4, 8]: 0; Ducksalad plant response rating [4, 9]: 0; Rice plant response rating [5, 8]: 0; Rice plant response rating [5, 9]: 0; S. Flatsedge plant response rating [6, 8]: 4; S. Flatsedge plant response rating [6, 9]: 7
Cc1cnc(-n2ccc(C(F)(F)F)n2)nc1C(=O)c1ccc(C(F)(F)F)cc1 [Compound 65]	0	0	3	0	7	0	7	0	2	0	2	0	0	0	0	0	0	0	0	0	Plant response rating, Rape [2, 7]: 0; Rape plant response rating ([2]; Rate 62 g/ha, Postemergence): 1; Rape plant response rating ([2]; Rate 125 g/ha, Postemergence): 1; Plant response rating, Rape ([2]; Rate 125 g/ha, Preemergence): 0; Barnyardgrass plant response rating [3, 8]: 0; Barnyardgrass plant response rating [3, 9]: 0; Ducksalad plant response rating [4, 8]: 0; Ducksalad plant response rating [4, 9]: 0; Rice plant response rating [5, 8]: 0; Rice plant response rating [5, 9]: 0; S. Flatsedge plant response rating [6, 8]: 0; S. Flatsedge plant response rating [6, 9]: 0
Cc1cnc(-c2ccc(C(F)(F)F)cc2)nc1Cn1nc(C(F)(F)F)cc1C [Compound 13]					10	5	10	6	9	9	9	9	3	3	2	3	0	1	4	5	Plant response rating, Bedstraw ([1]; Rate 62 g/ha, Postemergence): 7; Bedstraw plant response rating ([1]; Rate 62 g/ha, Preemergence): 1; Plant response rating, Bedstraw ([1]; Rate 125 g/ha, Postemergence): 9; Bedstraw plant response rating ([1]; Rate 125 g/ha, Preemergence): 2; Plant response rating, Rape ([2]; Rate 62 g/ha, Postemergence): 6; Rape plant response rating ([2]; Rate 62 g/ha, Preemergence): 5; Plant response rating, Rape ([2]; Rate 125 g/ha, Postemergence): 8; Rape plant response rating ([2]; Rate 125 g/ha, Preemergence): 6; Plant response rating, Barnyardgrass [3, 8]: 2; Plant response rating, Barnyardgrass [3, 12]: 2; Plant response rating, Ducksalad [4, 8]: 0; Plant response rating, Ducksalad [4, 12]: 1; Plant response rating, Rice [5, 8]: 0; Plant response rating, Rice [5, 12]: 0; Plant response rating, S. Flatsedge [6, 8]: 2; Plant response rating, S. Flatsedge [6, 12]: 4
Cc1cnc(-n2cnc(C(F)(F)F)c2)nc1C(=O)c1cccc(C(F)(F)F)c1 [Compound 61]	3	8	8	4	9	6	9	9	8	9	9	9	3	4	3	5	2	2	8	9	Plant response rating, Rape [2, 7]: 4; Rape plant response rating ([2]; Rate 62 g/ha, Postemergence): 6; Rape plant response rating ([2]; Rate 125 g/ha, Postemergence): 7; Plant response rating, Rape ([2]; Rate 125 g/ha, Preemergence): 8; Barnyardgrass plant response rating [3, 8]: 2; Barnyardgrass plant response rating [3, 9]: 3; Ducksalad plant response rating [4, 8]: 0; Ducksalad plant response rating [4, 9]: 1; Rice plant response rating [5, 8]: 0; Rice plant response rating [5, 9]: 0; S. Flatsedge plant response rating [6, 8]: 3; S. Flatsedge plant response rating [6, 9]: 7
